Assay results from paper PMC8877593, “Increased Activities against Biofilms of the Pathogenic Yeast Candida albicans of Optimized Pom-1 Derivatives” (Pharmaceutics, 2022).
Ends that are not written are not given here.

How the values were obtained:
Format in all cases: cell-based, Candida albicans (ATCC 90028)
[1] = test system: planktonic C. albicans cells; assay: Resazurin reduction / viability assay on planktonic C. albicans cells (broth microdilution, CLSI M27-A3); details: for inhibition of cell viability: planktonic C. albicans, 2.5 × 10^3 cells per well, 20 µg/mL, 24 h, 37 °C, RPMI-1640, resazurin fluorescence, vs untreated cells, triplicate; for Antimycrobial Activity against Planktonic C. albicans Cells [%] at 20 µg/mL: in comparison to Pom-1 (= 100%), 20 µg/mL peptide
Procedure: The viability of treated C. albicans cells with Pom-1A to F was determined according to the Clinical and Laboratory Standards Institute guidelines (M27-A3) for the broth microdilution assay. For this, 2.5 × 10^3 yeast cells were incubated in 200 µL of RPMI-1640 medium (supplemented with L-glutamine) in the presence of various concentrations of Pom-1A to F (2.5–20 µg/mL) in flat-bottomed polystyrene microtiter plates with 96 wells (Sarstedt AG and Co. KG, Nümbrecht, Germany) at 37 °C with shaking at 900 rpm on an Eppendorf shaker. Quantitation of viable yeast cells was performed using a Resazurin-reduction-Assay. For this, yeast cells were incubated with 20 µL of 0.15 mg/mL resazurin solution for 2 h. During this time, the viable cells were able to reduce the resazurin to resorufin. […] For this purpose, a dilution series was prepared for each sample in RPMI 1640 medium and 1 µL was added to Sabouraud agar plates, which were then incubated for 24 h at 37 °C, respectively. To determine the antifungal effect of the peptide derivatives on planktonic C. albicans cells, different concentrations (2.5–20 µg/mL) of the peptides were applied to fixed cell numbers (2.5 × 10^3 cells per well) and were incubated for 24 h in a suspension microtiter plate.

[2] = test system: C. albicans biofilm; parameters: semi inhibitory concentration (IC50) of biofilm formation / IC50 Values against Biofilm Formation: unit not given here; details: for semi inhibitory concentration (IC50) of biofilm formation / IC50 Values against Biofilm Formation: C. albicans, crystal violet, 24 h, 37 °C, 2.5–20 µg/mL, Hill fit, triplicate; for semi inhibitory concentration (IC50) of biofilm formation: Figure 4A; for IC50 Values against Biofilm Formation: without agitation, Table 1 (rounded); for Antimicrobial Activity against C. albicans Biofilm [%] Based on IC50 Values: in comparison to Pom-1 (= 100%), from IC50 values
Procedure: The analysis of the antifungal effect of the peptides on biofilm followed the same conditions as described previously. In brief, 2.5 × 10^3 yeast cells were incubated in 200 µL RPMI-1640 medium with L-glutamine in flat-bottomed polystyrene microtiter plates with 96 wells (Sarstedt AG and Co. KG, Nümbrecht, Germany) with the respective peptides at different concentrations (2.5–20 µg/mL) for 24 h at 37 °C, but without agitation. The quantification of the biofilm took place due to a crystal violet assay, which was originally developed by George O’ Toole for bacteria and was adapted for Candida biofilms. For this, the planktonic phase in the wells was removed and the biofilms were washed twice with 200 µL of demineralized water. Subsequently, the cells in the biofilm were stained for 15 min with 200 µL of a 0.1% (w/v) crystal violet solution. The solution was then removed again and the stained cells were washed twice with 200 µL of demineralized water. Then, the biofilms in the microtiter plate were dried for 24 h at 25 °C. These were then mixed with 200 µL of 30% acetic acid. After 15 min, the stained solution was transferred to a new microtiter plate and the absorbance at 560 nm was measured using a Tecan infinite F200 microplate reader. The data obtained were then graphically identified using a Hill non-linear dose-response equation and the semi-inhibitory concentration (IC50) was determined, at which 50% of the biofilm was not formed compared to the untreated control.
In order to evaluate the potential of the novel Pom-1A-F peptides, the well established crystal violet assay for microbial cultures in microtiter plates was performed to quantify the biomass formed.

[3] = test system: C. albicans biofilm; assay: Microscopic analysis of treated C. albicans biofilms; details: 20 µg/mL, 24 h at 37 °C, transmitted light, compared with untreated and Pom-1 control biofilms
Procedure: C. albicans biofilms were treated with Pom-1, and its derivatives in comparison to an untreated bifilm control (Figure 4B).
Figure 4 Antifungal activity of Pom-1A to F towards C. albicans biofilms. (A) Determined dose-dependent effect of Pom-1 derivatives on biofilm mass by crystal violet assay with fluconazole and Pom-1 as the control agent. All experiments were performed in triplicate and error bars indicate standard deviations. (B) Microscopic analysis using a Leica DMi8 coded (Leica Microsystems CMS GmbH, Wetzlar, Germany) microscope) of untreated C. albicans biofilm and biofilm treated with Pom-1 and its derivatives (20 µg/mL) after 24 h of incubation at 37 °C under transmitted light. TEXT PRINTED IN THE PICTURE: (A) Pom-1A: IC50: 0.9555 | (A) Pom-1B: IC50: 0.008353 | (A) Pom-1C: IC50: 0.08687 | (A) Pom-1D: IC50: 4.930e-032 | (A) Pom-1E: IC50: 2.893 | (A) Pom-1F: IC50: 0.1570 DOUBTS OF THE COPYIST ABOUT THIS PICTURE: Pom-1A, IC50: small print, 0.9555 could be 0.9535 or 0.9556 / Pom-1B, IC50: small print, 0.008353 digits 8/3/5 not certain / Pom-1C, IC50: small print, 0.08687 digits 8/6 not certain / Pom-1D, IC50: small print, 4.930e-032 digits 9/3 not certain / Pom-1E, IC50: small print, 2.893 digits 8/9/3 not certain / Pom-1F, IC50: small print, 0.1570 digit 5 not certain

[4] = test system: C. albicans planktonic cells; assay: Plate spot assay (colony formation after treatment of planktonic cells); details: after 24 h incubation with peptide (2.5–20 µg/mL), dilutions spotted on Sabouraud agar, further 24 h at 37 °C
Procedure: The viability of treated C. albicans cells with Pom-1A to F was determined according to the Clinical and Laboratory Standards Institute guidelines (M27-A3) for the broth microdilution assay. For this, 2.5 × 10^3 yeast cells were incubated in 200 µL of RPMI-1640 medium (supplemented with L-glutamine) in the presence of various concentrations of Pom-1A to F (2.5–20 µg/mL) in flat-bottomed polystyrene microtiter plates with 96 wells (Sarstedt AG and Co. KG, Nümbrecht, Germany) at 37 °C with shaking at 900 rpm on an Eppendorf shaker. Quantitation of viable yeast cells was performed using a Resazurin-reduction-Assay. For this, yeast cells were incubated with 20 µL of 0.15 mg/mL resazurin solution for 2 h. During this time, the viable cells were able to reduce the resazurin to resorufin. […] The data obtained were subsequently identified in a Hill nonlinear dose-response equation and the semi-inhibitory concentration (IC50) could be determined, at which the cell viability was reduced by 50% compared to the untreated control. In addition, after incubation, 1 µL cell suspension was taken from each well of the microtiter plate to visually confirm the graphical results in a plate spot assay. For this purpose, a dilution series was prepared for each sample in RPMI 1640 medium and 1 µL was added to Sabouraud agar plates, which were then incubated for 24 h at 37 °C, respectively.
For this purpose, 1 µL cell suspension was taken from each well before adding the resazurin solution from the suspension microtiter plate. This sample was then diluted and was added to a Sabourand agar plate, which was then incubated for an additional 24 h for colony formation.

Compound	inhibition of cell viability [1]	Antimycrobial Activity against Planktonic C. albicans Cells [%] at 20 µg/mL [1]	semi inhibitory concentration (IC50) of biofilm formation [2]	IC50 Values against Biofilm Formation [2]	Antimicrobial Activity against C. albicans Biofilm [%] Based on IC50 Values [2]	biofilm cell density / surface coverage by microscopy [3]	colony formation in plate spot assay [4]
OC(Cn1cncn1)(Cn1cncn1)c1ccc(F)cc1F [fluconazole, reference compound]	up to 70%						
AGSIAWAIGSGLFGGAKLIKIKKY [Pom-1C]		100%	0.08687	0.08	4750%		
AIGSGLFGGAKLIKIKKYI [Pom-1F]		82%	0.1570	0.16	2375%	slightly higher surface coverage	
H-KCAGSIAWAIGSGLFGGAKLIKIKKYIAELGGLQ-OH [Pom-1]		100%		3.8	100%	significant reduction	
IGSGLFGGAKLIKIKKYI [Pom-1A]		133%	0.9555	0.95	400%		colony formation decreased with the increase of peptide concentrations
IGSGLFGGAKLIKIKKYIA [Pom-1D]		97%					colony formation decreased with the increase of peptide concentrations
KCAGSIAWAIGSGLFGGAKLIKIKK [Pom-1E]		153%	2.893	2.89	131%	slightly higher surface coverage	
KCAGSIAWAIGSGLFGGAKLIKIKKY [Pom-1B]	up to 70%	160%	0.008353	0.008	47500%		colony formation decreased with the increase of peptide concentrations
